Data set [1] addresses T1, HuR protein bound to Msi1-Bi (Homo sapiens, UniProt Q15717).
T1 construct: endogenous in cells
The data set is described as follows: Pull-down assay #1, RNA immunoprecipitation with biotinylated Msi1 ARE oligo. The data set is classed as cell-based. To be noted: cytoplasmic lysates of treated cells with HuR overexpression. The procedure:
Cells with HuR overexpression were treated with compounds, then the cell cytoplasmic lysates were collected using NE-PER Nuclear and Cytoplasmic Extraction Kit (Thermo Scientific), and subsequently to the cell cytoplasmic lysates were added the biotinylated target ARE oligo from Msi1 mRNA (Msi1-Bi). Following this, streptavidin beads were added to pull down HuR protein bound to Msi1-Bi. Compounds of the present technology blocked the HuR pull-down by the biotinylated ARE oligo, illustrating inhibition of the Hur-mRNA interaction. Unlabeled target AREs were used as positive control. FIG. 6A provides results with KH-3, illustrating KH-3 blocked Msi1-Bi RNA mediated pull-down of HuR protein up to 24%.

The next data set relates to MDA-MB-231. The experiment in a line: Cytotoxicity assay (WST-8). Type of data set: cell-based. To be noted: Homo sapiens, MDA-MB-231, 96 h, read-out: Cytotoxicity (IC50, μM) MDA-MB-231. The protocol: The cytotoxicity of the tested compounds in several cancer cell lines (HCT116 β/w, MIAPaCa-2, and MDA-MB-231) was determined by a cytotoxicity assay, where the results are provided in Table 1. Cells were seeded in 96-well culture plates (5,000 cells/well) and treated with titrated compounds in triplicate. After 96 h incubation, cell growth medium was removed and proliferation reagent WST-8 (Sigma) was added to each well and incubated at 37° C. for 1-3 h. Absorbance was then measured with a plate reader at 450 nm with correction at 650 nm. The results were expressed as the percentage of absorbance of treated wells versus that of vehicle control. IC50, the drug concentration causing 50% growth inhibition, was calculated via sigmoid curve fitting using GraphPad Prism 5.0. […]
For orientation: Tetrazolium assays rely on reduction of a dye to a coloured formazan, in cell work by metabolically active cells.

For data set [2], the target named is T2, HuR protein interaction with the ARE site of Msi1 mRNA (HuR-Msi1^ARE) (Homo sapiens, UniProt Q15717).
T2 construct: full-length human HuR protein was produced by the KU COBRE-PSF Protein Purification Group; made in house
T2 sequence (Q15717 whole entry): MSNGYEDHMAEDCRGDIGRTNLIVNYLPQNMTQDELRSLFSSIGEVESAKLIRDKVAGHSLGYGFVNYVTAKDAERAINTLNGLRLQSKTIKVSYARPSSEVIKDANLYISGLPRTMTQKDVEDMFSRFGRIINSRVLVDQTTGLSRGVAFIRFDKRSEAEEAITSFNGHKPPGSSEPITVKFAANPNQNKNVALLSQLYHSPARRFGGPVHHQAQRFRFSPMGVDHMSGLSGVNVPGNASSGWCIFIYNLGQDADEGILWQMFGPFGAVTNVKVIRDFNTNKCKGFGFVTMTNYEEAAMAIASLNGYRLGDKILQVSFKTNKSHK
The experiment in a line: Fluorescence polarization (FP) assay, inhibition of HuR-Msi1 ARE interaction. Type of data set: binding. As to conditions: full-length human HuR, read-out: Ki via FP assay. The text has this:
A fluorescence polarization (FP)-based binding assay was utilized to assess the inhibition of HuR protein interaction with the ARE site of Msi1 mRNA (“HuR-Msi1^ARE”) by compounds of interest. Briefly, full-length human HuR protein was produced by the KU COBRE-PSF Protein Purification Group and Bcl2, Msi1 and XIAP mRNA sequences (16 nt) were designed based on literature precedent^23,24,31,32. Fluorescein labeled RNAs were purchased from Dharmacon with the following sequences: Msi1 RNA: 5′-GCUUUUAUUUAUUUUG-3′-fluorescein; Bcl-2 RNA: 5′-AAAAGAUUUAUUUAUU-3′-fluorescein; XIAP RNA: 5′-UAGUUAUUUUUA UGUC-3′-fluorescein, and a 16-nt degenerative RNA with 3′-fluorescein label was used as a negative control.
Background: In fluorescence polarisation assays a small probe gives low polarisation when free and higher when bound to something large.

For data set [3], the system named is panel of cancer cell lines. The data set is described as follows: Cytotoxicity assay, expanded panel of cell lines. Type of data set: cell-based. The procedure:
(§1) The cytotoxicity of the tested compounds in several cancer cell lines (HCT116 β/w, MIAPaCa-2, and MDA-MB-231) was determined by a cytotoxicity assay, where the results are provided in Table 1. Cells were seeded in 96-well culture plates (5,000 cells/well) and treated with titrated compounds in triplicate. After 96 h incubation, cell growth medium was removed and proliferation reagent WST-8 (Sigma) was added to each well and incubated at 37° C. for 1-3 h. Absorbance was then measured with a plate reader at 450 nm with correction at 650 nm. The results were expressed as the percentage of absorbance of treated wells versus that of vehicle control. IC50, the drug concentration causing 50% growth inhibition, was calculated via sigmoid curve fitting using GraphPad Prism 5.0.
(§2) The assay was then utilized to assess cytotoxicity of KH-3 against an expanded panel of cell lines (including normal cell line WI-38), where FIGS. 4A-4C provide the results.

The test system of the next data set is HCT116 β/w. The experiment in a line: Cytotoxicity assay (WST-8). The data set is classed as cell-based. As to conditions: Homo sapiens, HCT-116, 96 h incubation. The procedure: (§3) Cells were seeded in 96-well culture plates (5,000 cells/well) and treated with titrated compounds in triplicate. After 96 h incubation, cell growth medium was removed and proliferation reagent WST-8 (Sigma) was added to each well and incubated at 37° C. for 1-3 h. Absorbance was then measured with a plate reader at 450 nm with correction at 650 nm. The results were expressed as the percentage of absorbance of treated wells versus that of vehicle control.

The test system of another data set is MIAPaCa-2. The experiment in a line: Cytotoxicity assay (WST-8). The data set is classed as cell-based. As to conditions: Homo sapiens, MIA PaCa-2, 96 h incubation. The protocol:
as §3

For the next data set, the system named is normal cell line WI-38. The data set is described as follows: Cytotoxicity assay, normal cell line. Type of data set: cell-based. The procedure: as §1, §2

T1 sequence (Q15717 2-326 limits assumed): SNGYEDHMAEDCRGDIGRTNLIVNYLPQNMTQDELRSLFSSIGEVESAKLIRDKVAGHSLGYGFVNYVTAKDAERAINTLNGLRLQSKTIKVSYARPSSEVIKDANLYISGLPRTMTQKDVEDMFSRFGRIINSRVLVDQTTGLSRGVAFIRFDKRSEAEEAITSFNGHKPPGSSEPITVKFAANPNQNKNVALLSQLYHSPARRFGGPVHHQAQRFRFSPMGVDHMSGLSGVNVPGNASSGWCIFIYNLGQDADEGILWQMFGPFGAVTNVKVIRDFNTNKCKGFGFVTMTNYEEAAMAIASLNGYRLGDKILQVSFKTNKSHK

For orientation: IC50 means the concentration that gives 50% inhibition. In general, Ki refers to a dissociation constant, usually derived from enzyme kinetics or from competition with a known ligand. As for `CC(C)(C)c1ccc(S(=O)(=O)Nc2ccc3sc(/C=C/C(=O)NO)cc3c2)cc1` [KH-3], in data set [1], the “blocking of Msi1-Bi RNA mediated pull-down of HuR protein” value is listed as “up to 24%”. The IC50 was 4.15 µM in the data set on MDA-MB-231, 3.6 µM in the data set on HCT116 β/w and 4.5 µM in the data set on MIAPaCa-2. Moreover, the Ki in data set [2] worked out at 0.81 µM. In addition, the “cytotoxicity across a panel of cancer cell lines” value in data set [3] is reported as “potent cytotoxicity”. For the same molecule, the “concentration until which not cytotoxic” value in the data set on normal cell line WI-38 was “about 100 μM”.

(Values after US20230131501A1, “THERAPEUTIC USES OF INHIBITORS OF THE RNA-BINDING PROTEIN HuR” (University of Kansas, priority 2020, published 2023).)
